Assay results as given in patent US10526309B2, “Pan-TAM inhibitors and Mer/Axl dual inhibitors” (The University of North Carolina at Chapel Hill, priority 2015, dated 2020).
Read-outs that look alike come from different tables or passages of the source.

Tests used:
Format in all cases: biochemical
[1] = target: T1, Mer (Homo sapiens, UniProt Q12866); assay: Mer kinase inhibition IC50; conditions: read-out: Mer IC50
T1 sequence (Q12866 21-999): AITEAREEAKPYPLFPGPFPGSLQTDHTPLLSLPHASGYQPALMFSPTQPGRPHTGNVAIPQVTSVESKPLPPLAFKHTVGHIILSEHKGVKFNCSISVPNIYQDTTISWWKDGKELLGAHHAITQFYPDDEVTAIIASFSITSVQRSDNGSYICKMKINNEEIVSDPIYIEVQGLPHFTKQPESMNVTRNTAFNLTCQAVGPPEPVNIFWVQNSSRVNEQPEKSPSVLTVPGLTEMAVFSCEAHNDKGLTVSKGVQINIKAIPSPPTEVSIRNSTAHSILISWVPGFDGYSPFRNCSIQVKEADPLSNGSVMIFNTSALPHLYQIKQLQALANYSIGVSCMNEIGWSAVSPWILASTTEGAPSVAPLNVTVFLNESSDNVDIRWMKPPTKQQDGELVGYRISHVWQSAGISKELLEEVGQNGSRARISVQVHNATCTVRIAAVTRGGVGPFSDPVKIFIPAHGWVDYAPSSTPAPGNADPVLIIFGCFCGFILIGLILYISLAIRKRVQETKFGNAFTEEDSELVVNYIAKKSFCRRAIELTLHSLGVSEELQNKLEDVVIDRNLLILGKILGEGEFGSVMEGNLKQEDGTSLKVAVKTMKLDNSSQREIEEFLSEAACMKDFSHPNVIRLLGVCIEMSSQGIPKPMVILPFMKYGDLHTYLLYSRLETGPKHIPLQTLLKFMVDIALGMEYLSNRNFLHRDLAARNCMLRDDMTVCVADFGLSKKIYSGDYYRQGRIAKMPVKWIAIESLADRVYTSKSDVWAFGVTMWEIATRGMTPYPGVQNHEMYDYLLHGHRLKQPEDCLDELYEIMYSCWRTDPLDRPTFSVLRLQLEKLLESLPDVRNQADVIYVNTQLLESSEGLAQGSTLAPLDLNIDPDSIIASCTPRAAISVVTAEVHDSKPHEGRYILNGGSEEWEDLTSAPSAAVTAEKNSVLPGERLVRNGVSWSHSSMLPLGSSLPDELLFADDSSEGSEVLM

[2] = target: T2, Axl (Homo sapiens, UniProt P30530); assay: Axl kinase inhibition IC50
T2 sequence (P30530 26-894): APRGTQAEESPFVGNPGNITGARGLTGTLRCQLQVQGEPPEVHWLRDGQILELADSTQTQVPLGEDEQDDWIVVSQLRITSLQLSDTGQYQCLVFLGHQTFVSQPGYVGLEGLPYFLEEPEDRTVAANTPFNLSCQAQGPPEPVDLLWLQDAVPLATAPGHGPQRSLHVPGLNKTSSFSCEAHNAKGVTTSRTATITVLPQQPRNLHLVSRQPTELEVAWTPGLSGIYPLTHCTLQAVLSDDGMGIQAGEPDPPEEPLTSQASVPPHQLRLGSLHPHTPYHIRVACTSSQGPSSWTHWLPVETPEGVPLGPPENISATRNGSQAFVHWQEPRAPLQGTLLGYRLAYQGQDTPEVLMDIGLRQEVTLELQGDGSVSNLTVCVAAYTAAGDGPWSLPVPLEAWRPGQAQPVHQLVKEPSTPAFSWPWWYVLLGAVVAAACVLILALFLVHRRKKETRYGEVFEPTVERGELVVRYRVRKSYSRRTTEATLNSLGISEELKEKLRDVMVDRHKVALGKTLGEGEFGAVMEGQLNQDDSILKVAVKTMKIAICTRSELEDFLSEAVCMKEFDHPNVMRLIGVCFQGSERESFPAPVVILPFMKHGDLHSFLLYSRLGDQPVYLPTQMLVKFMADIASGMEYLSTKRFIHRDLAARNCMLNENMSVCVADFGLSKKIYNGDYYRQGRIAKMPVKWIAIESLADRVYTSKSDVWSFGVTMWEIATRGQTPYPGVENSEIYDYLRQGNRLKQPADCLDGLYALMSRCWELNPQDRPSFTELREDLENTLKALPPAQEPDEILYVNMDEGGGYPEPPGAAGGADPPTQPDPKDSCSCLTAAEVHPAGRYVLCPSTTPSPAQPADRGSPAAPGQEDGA

[3] = target: T3, Tyro3 (Homo sapiens, UniProt Q06418); assay: Tyro3 kinase inhibition IC50
T3 sequence (Q06418 41-890): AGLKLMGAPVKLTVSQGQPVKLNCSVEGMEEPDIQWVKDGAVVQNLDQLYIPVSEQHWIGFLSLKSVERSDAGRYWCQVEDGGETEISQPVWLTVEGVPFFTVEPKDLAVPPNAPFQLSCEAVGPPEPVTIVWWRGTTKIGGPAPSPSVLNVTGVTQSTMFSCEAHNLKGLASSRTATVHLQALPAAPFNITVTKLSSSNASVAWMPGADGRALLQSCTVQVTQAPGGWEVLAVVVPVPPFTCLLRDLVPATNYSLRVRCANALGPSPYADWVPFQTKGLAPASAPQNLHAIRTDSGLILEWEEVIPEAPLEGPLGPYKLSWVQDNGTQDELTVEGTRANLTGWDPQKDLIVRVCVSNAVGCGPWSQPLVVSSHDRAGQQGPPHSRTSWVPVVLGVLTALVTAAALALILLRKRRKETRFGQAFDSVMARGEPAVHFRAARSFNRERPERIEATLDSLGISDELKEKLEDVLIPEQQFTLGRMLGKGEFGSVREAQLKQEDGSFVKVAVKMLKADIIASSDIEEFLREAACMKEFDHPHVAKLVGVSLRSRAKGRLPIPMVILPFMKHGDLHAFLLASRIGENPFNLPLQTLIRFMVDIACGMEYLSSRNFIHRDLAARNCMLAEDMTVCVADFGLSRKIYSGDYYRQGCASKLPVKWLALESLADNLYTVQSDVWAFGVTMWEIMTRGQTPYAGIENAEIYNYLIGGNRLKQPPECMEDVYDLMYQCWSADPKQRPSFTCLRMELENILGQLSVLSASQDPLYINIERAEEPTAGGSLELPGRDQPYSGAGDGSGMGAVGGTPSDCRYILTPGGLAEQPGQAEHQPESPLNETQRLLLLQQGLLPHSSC

Row | Structure (SMILES) | IC50 ([1]; Table 2) [nM] | IC50 ([2]; Table 2) [nM] | IC50 ([3]; Table 2, read-out: Tyro3 IC50) [nM] | IC50 ([1]; Table 3) [nM] | IC50 ([2]; Table 3) [nM] | IC50 ([3]; Table 3, read-out: Tyro3 IC50) [nM] | other results
1 | O[C@H]1CC[C@H](Nc2nc(Nc3ccc(-c4cccnc4)cc3)ncc2-c2ccccn2)CC1 [UNC4435A] | 100 to 1000 | 1000 to 30000 | 100 to 1000 |  |  |  | 
2 | CN(C)C(=O)c1ccnc(C#Cc2ccc(Nc3ncc(-c4ccccn4)c(N[C@H]4CC[C@H](O)CC4)n3)cc2)c1 [UNC3459A] |  |  |  | 10 to 100 | 1000 to 30000 | < 10 | 
3 | CN1CCC(c2ccc(Nc3ncc(-c4ccccn4)c(N[C@H]4CC[C@H](C)CC4)n3)cc2)CC1 [UNC5133A] | 100 to 1000 | 1000 to 30000 | 100 to 1000 |  |  |  | 
4 | CC(C)C(=O)Nc1ccnc(C#Cc2ccc(Nc3ncc(-c4ccc(CN5CCN(C)CC5)cc4)c(N[C@H]4CC[C@H](O)CC4)n3)c(F)c2)c1 [UNC4040A] |  |  |  | < 10 | 100 to 1000 | < 10 | 
5 | CC(C)Nc1nc(Nc2ccc(C3CCN(C)CC3)cc2)ncc1-c1ccccn1 [UNC5135A] | 10 to 100 | 100 to 1000 | 100 to 1000 |  |  |  | 
6 | O[C@H]1CC[C@H](Nc2nc(Nc3ccc(C#Cc4cc(-c5ccn[nH]5)ccn4)cc3)ncc2-c2ccccn2)CC1 [UNC4360A] |  |  |  |  |  |  | IC50 ([1]; Table 4): 100 to 1000 nM; IC50 ([2]; Table 4): 1000 to 30000 nM; IC50 ([3]; Table 4, read-out: Tryo3 IC50): 100 to 1000 nM
7 | O[C@H]1CC[C@H](Nc2nc(Nc3ccc(C4CCCNC4)cc3)ncc2-c2ccccn2)CC1 (some centres unmarked) [UNC5129A] | 100 to 1000 | 100 to 1000 | 100 to 1000 |  |  |  | 
8 | CCNC(=O)c1ccnc(C#Cc2ccc(Nc3ncc(-c4ccccn4)c(N[C@H]4CC[C@H](O)CC4)n3)cc2)c1 [UNC3458A] |  |  |  | < 10 | < 10 | < 10 | 
9 | Cc1cc(C#Cc2cc(NC(=O)C(C)C)ccn2)ccc1Nc1ncc(-c2ccc(CN3CCN(C)CC3)cc2)c(N[C@H]2CC[C@H](O)CC2)n1 [UNC4048A] |  |  |  | 10 to 100 | 100 to 1000 | 10 to 100 | 
10 | O[C@H]1CC[C@H](Nc2nc(Nc3ccc(C4CCNCC4)cc3)ncc2-c2ccccn2)CC1 [UNC5128A] | 100 to 1000 | 1000 to 30000 | 100 to 1000 |  |  |  | 
11 | CN1CCN(Cc2ccc(-c3cnc(Nc4ccc(C#Cc5cc(NC(=O)C6CCC6)ccn5)cc4)nc3N[C@H]3CC[C@H](O)CC3)cc2)CC1 [UNC3871A] |  |  |  | < 10 | 10 to 100 | < 10 | 
12 | CNc1nc(Nc2ccc(C3CCN(C)CC3)cc2)ncc1-c1ccccn1 [UNC5136A] | 1000 to 30000 | 1000 to 30000 | 1000 to 30000 |  |  |  | 
13 | CN1CCN(Cc2ccc(-c3ccc(Nc4ncc(-c5ccccn5)c(N[C@H]5CC[C@H](O)CC5)n4)cc3)cc2)CC1 [UNC4437A] | 100 to 1000 |  |  |  |  |  | 
14 | CN1CC=C(c2ccc(Nc3ncc(-c4ccccn4)c(N[C@H]4CC[C@H](O)CC4)n3)cc2)CC1 [UNC4431A] | 100 to 1000 | 1000 to 30000 | 100 to 1000 |  |  |  | 
15 | CN1CCN(Cc2ccc(-c3cnc(Nc4ccc(C#Cc5cc(NC(=O)C6CCCC6)ccn5)cc4)nc3N[C@H]3CC[C@H](O)CC3)cc2)CC1 [UNC3872A] |  |  |  | < 10 | < 10 | < 10 | 
16 | O[C@H]1CC[C@H](Nc2nc(Nc3ccc(C#Cc4cc(Nc5ncco5)ccn4)cc3)ncc2-c2ccccn2)CC1 [UNC4392A] |  |  |  |  |  |  | IC50 ([1]; Table 4): 100 to 1000 nM; IC50 ([2]; Table 4): 1000 to 30000 nM; IC50 ([3]; Table 4, read-out: Tryo3 IC50): 100 to 1000 nM
17 | NS(=O)(=O)c1ccc(-c2cnc(Nc3ccc(C#Cc4cc(C(=O)NC5CC5)ccn4)cc3)nc2N[C@H]2CC[C@H](O)CC2)nc1 [UNC3457A] |  |  |  | 10 to 100 | 10 to 100 | 100 to 1000 | 
18 | Cc1cc(Nc2ncc(-c3ccc(CN4CCN(C)CC4)cc3)c(N[C@H]3CC[C@H](O)CC3)n2)ccc1C#Cc1cc(NC(=O)C(C)C)ccn1 [UNC4044A] |  |  |  | < 10 | < 10 | < 10 | 
19 | COc1cccc(Oc2ccnc(C#Cc3ccc(Nc4ncc(-c5ccccn5)c(N[C@H]5CC[C@H](O)CC5)n4)cc3)c2)c1 [UNC4393A] |  |  |  |  |  |  | IC50 ([1]; Table 5): 1000 to 30000 nM; IC50 ([2]; Table 5): 1000 to 30000 nM; IC50 ([3]; Table 5, read-out: Tryo3 IC50): 1000 to 30000 nM
20 | CN1CCCC(c2ccc(Nc3ncc(-c4ccccn4)c(N[C@H]4CC[C@H](O)CC4)n3)cc2)C1 (some centres unmarked) [UNC5131A] | 10 to 100 | 100 to 1000 | 100 to 1000 |  |  |  | 
21 | CN1CCC(c2ccc(Nc3ncc(-c4ccccn4)c(N[C@H]4CC[C@H](O)CC4)n3)cc2)CC1 [UNC5130A] | 10 to 100 | 100 to 1000 | 100 to 1000 |  |  |  | 
22 | CC(C)Oc1ccnc(C#Cc2ccc(Nc3ncc(-c4ccccn4)c(N[C@H]4CC[C@H](O)CC4)n3)cc2)c1 [UNC4394A] |  |  |  |  |  |  | IC50 ([1]; Table 5): 100 to 1000 nM; IC50 ([2]; Table 5): 100 to 1000 nM; IC50 ([3]; Table 5, read-out: Tryo3 IC50): 100 to 1000 nM
23 | O[C@H]1CC[C@H](Nc2nc(Nc3ccc(C#Cc4cc(-c5cccnc5)ccn4)cc3)ncc2-c2ccccn2)CC1 [UNC4361A] |  |  |  |  |  |  | IC50 ([1]; Table 4): 100 to 1000 nM; IC50 ([2]; Table 4): 100 to 1000 nM; IC50 ([3]; Table 4, read-out: Tryo3 IC50): 100 to 1000 nM
24 | CC(C)C(=O)Nc1ccnc(C#Cc2ccc(Nc3ncc(-c4ccccc4)c(N[C@H]4CC[C@H](O)CC4)n3)cc2)c1 [UNC4041A] |  |  |  | 10 to 100 | 100 to 1000 | 10 to 100 | 
25 | O[C@H]1CC[C@H](Nc2nc(Nc3ccccc3)ncc2-c2ccccn2)CC1 [UNC3029A] |  |  |  |  |  |  | IC50 ([2]; Table 1): 100 to 1000 nM; IC50 ([3]; Table 1, read-out: Tyro3 IC50): < 10 nM
26 | O[C@H]1CC[C@H](Nc2nc(Nc3ccc(C#Cc4cc(-c5ccncc5)ccn4)cc3)ncc2-c2ccccn2)CC1 [UNC4363A] |  |  |  |  |  |  | IC50 ([1]; Table 4): 10 to 100 nM; IC50 ([2]; Table 4): 1000 to 30000 nM; IC50 ([3]; Table 4, read-out: Tryo3 IC50): 100 to 1000 nM
27 | CC(C)C(=O)Nc1ccnc(C#Cc2ccc(Nc3ncc(-c4ccc(CN5CCN(C)CC5)cc4)c(N[C@H]4CC[C@H](O)CC4)n3)cc2)c1 [UNC3870A] |  |  |  | < 10 | < 10 | < 10 | 
28 | O=S(=O)(c1ccc(-c2cnc(Nc3ccc(C#Cc4cc(C5OCCO5)ccn4)cc3)nc2N[C@H]2CC[C@H](O)CC2)nc1)N1CCOCC1 [UNC3619A] |  |  |  | < 10 | 100 to 1000 | < 10 | 
29 | CN1CCN(Cc2ccc(-c3cnc(Nc4ccc(C#Cc5cc(C6OCCO6)ccn5)cc4)nc3N[C@H]3CC[C@H](O)CC3)cc2)CC1 [UNC3437A] |  |  |  | 10 to 100 | 100 to 1000 |  | 
